Data on eight compounds can be found in US12644143B2, “Method for the determination of antibiotic susceptibility through stimulated Raman metabolic imaging” (priority 2017, dated 2026).

Converted amounts (≈) assume the structure as drawn. A value given as a limit tells only on which side of the number the result lay.

Assay type in all cases: cell-based
The test system of data set [1] is E. coli. As to the method: (§1) The toxicity of D2O was first tested on bacteria by measuring the growth in a D2O containing medium. Three types of bacteria (E. coli, S. aureus, and P. aeruginosa) were cultured at different concentrated D2O containing LB medium, and their growth were monitored with optical density (OD) measurement at about 600 nm.
The subject of data set [2] is S. aureus. The protocol: as §1
In data set [3] the test system is P. aeruginosa. As to the method: as §1
Data set [4] has as its system P. aeruginosa. As to the kind of experiment: SRS imaging of D2O metabolic activity (C-D signal at 2162 cm-1). To be noted: for C-D signal / metabolic activity of D2O in SRS imaging: 10 minutes to 3 hours; for average C-D signal intensity relative to about 65% of control threshold: all time points about 10 minutes to about 3 hours. The protocol:
A 70% D2O containing LB medium was provided to cultivate bacteria, and used P. aeruginosa as a model to test whether the D2O metabolic activity in single bacterium can be monitored by SRS microscope. P. aeruginosa was separately cultivated in normal LB and 70% D2O containing LB medium for about 2 hours, and then centrifuged and washed in water to remove the culture medium. […] To image single bacterium, bacteria were further diluted and deposited on an agarose gel pad. […] The results were confirmed by SRS spectrum (FIG. 16C) obtained through temporal tuning of chirped pump and Stokes femtosecond pulses.
A time lapse of D2O metabolic activity can be carried out in single P. aeruginosa with femtosecond SRS imaging. P. aeruginosa was first cultivated in about 70% D2O containing LB medium for up to about 3 hours, at different time points, about 500 μl bacteria were centrifuged, washed and deposited on agarose gel pad for imaging. […] To view individual bacterium more clearly, the images in FIG. 18A were further zoomed in FIG. 18B.
(§2) P. aeruginosa were cultivated in 70% D2O containing LB medium, with the addition of 20 μg/ml gentamicin or cefotaxime to determine the antibiotic effect on the metabolic activity of D2O in bacteria, and wherein it is suitable for use of rapid AST with SRS imaging. The susceptibility of P. aeruginosa were pre-determined to be susceptible to gentamicin and resistant to cefotaxime at this concentration using conventional culture-based microdilution method. […] This filamentary formation may also be observed when P. aeruginosa was treated with other β-lactam antibiotics 10.
The D2O metabolic activity of bacteria can be used to rapid differentiate the antibiotic susceptibility of bacteria and examined using the average C-D signal intensity of bacteria being compared between three groups shown in FIGS. 19C-H, the control without antibiotics treatment (FIG. 18A), treated with gentamicin (FIG. 19A), and treated with cefotaxime (FIG. 19B). […] Therefore, the susceptibility of P. aeruginosa to gentamicin and cefotaxime can be determined in as short as about 10 minutes.
The SRS metabolic imaging method can determine the minimal inhibitory concentration (MIC) of antibiotics to bacteria and was done by cultivating P. aeruginosa in about 70% D2O containing LB medium for about 1 hour with the addition of gentamicin with serial diluted concentration. […] With the 65% intensity threshold, the MIC was determined to be about 8 μg/ml with SRS-based D2O metabolic imaging method, which is consistent to the result determined by the conventional culture-based method.

Data set [5] has as its system P. aeruginosa. Description: conventional culture-based microdilution method. To be noted: 20 μg/ml. As to the method:
as §2

The test system of data set [6] is E. faecalis 31970 (vancomycin susceptible enterococci, VSE). As to the kind of experiment: MIC by conventional culture based method.
The test system is the same in data set [7]. As to the kind of experiment: SRS metabolic imaging of glucose-d7 uptake (C-D signal) for AST. To be noted: for susceptibility of E. faecalis 31970 based on metabolic imaging method: 20 μg/mL antibiotic; for C-D signal in SRS imaging versus control: E. faecalis 31970, 20 μg/mL antibiotic; for intensity of C-D component versus control: 1 hour. The protocol:
(§3) The SRS imaging based method of the present disclosure can determine the susceptibility of bacteria to antibiotics within about […]. A bacteria solution for testing through SRS imaging and placement on the agarose gel pad can be prepared by cultivating bacteria in a broth, such as a Lysogeny broth (LB) (LB Broth, Sigma Aldrich) for about two hours to reach to log phase. The bacteria can then added in a ratio between about 0.1:100 to about a 10:100 ratio to 2 mL of various types of medium. In one exemplary embodiment, the ration can be about 1:100 to 2 ML of medium, such as a specialized medium. Some exemplary embodiments can use D2O medium or other specialized medium herein referred to as M9 medium wherein about a 2% glucose-d7 can be only carbon source. The M9 medium is developed and selected to maximize the signal within the C-D vibrational region. To measure the resistance of a given bacteria to an antibiotic, the antibiotic is added to the specialized medium to a concentration of about 20 μg/mL. After at least about 30 minutes of incubation about 500 μl of the sample is centrifuged, washed twice with purified water, and deposited to an agarose gel pad for imaging. An imaging setup of illustrated in FIG. 1A can be utilized to process the sample.
Referring now to FIG. 2A-D the method of the present disclosure can generally be performed in an exemplary method to determine effectiveness utilizing an antibiotic, such as vancomycin. Accordingly, the method can be utilized to examine the influence of antibiotics to the metabolic uptake of glucose-d7 by bacteria. Vancomycin susceptible (VSE) and Vancomycin resistant (VRE) enterococci E. faecalis can first be grown to a log phase by cultivating in LB medium for about 2 hours, then VSE and VRE can further be cultivated in M9 medium with about 2% glucose-d7 as the sole carbon source, respectively, with the addition of vancomycin to a final concentration of about 20 μg/mL (FIG. 2A). Other embodiments can include various types of carbon source as a sole carbon source or in combination with other carbon or nutrient sources. One exemplary embodiment can use a nutrient source of about 0-100% deuterium dioxide. Similarly, the carbon source can include a combination of deuterium dioxide and glucose-d7. This concentration was chosen because it is between the minimum inhibitory concentrations (MICS) of vancomycin to VSE (MIC is 1 μg/mL) and to VRE (MIC is >100 μg/mL). For control, VSE and VRE were cultivated in glucose-d7 containing medium without the addition of vancomycin (FIG. 2a). After 30 minutes (0.5 hours) to 3 hours incubation, each sample was centrifuged and washed twice in water, and then deposited on an agarose gel pad for SRS imaging.
(§4) To quantify the C-D content of the E. faecalis cells and the response of bacteria to the treatment of antibiotics, multivariate curve resolution (MCR) analysis is applied to retrieve the C-D component from hyperspectral SRS imaging data shown in FIGS. 3A-D. MCR is a bilinear model which decomposes the experimental data matrix that contains spectrum at each pixel into concentration maps and spectra of principle components. With an initial estimated spectrum of each component as the input, MCR is calculated and optimized iteratively using alternating least squares algorithm until convergence is reached. The output of MCR contains the concentration map and spectrum of each component. Referring now to FIG. 3A-D the spectra of glucose-d7, which represented the C-D component, and gel, which represented the background, were used as the input components. After MCR analysis, C-D component can be clearly separated from the background and utilized to quantify the contents of the collected SRS imaging data.
The MIC, defined as the lowest concentration of antibiotic that is able to inhibit the visible growth of bacteria in vitro, can be determined by our metabolic imaging method. […]

Data set [8] deals with S. aureus strain susceptible to oxacillin. As to the kind of experiment: MIC of oxacillin. To be noted: Staphylococcus aureus.
The test system is the same in data set [9]. Description: SRS metabolic imaging of deuterated glucose (C-D peak). To be noted: 1.3 μg/ml oxacillin, 0.5 h, glucose-d2 containing medium. As to the method: (§5) The metabolic activity of glucose-d2 can be observed in single bacterium cultivated in glucose-d2 containing medium for 0.5 h by SRS imaging (FIG. 11B). […] Therefore, susceptible and resistant S. aureus can be determined in about 0.5 h.

In data set [10] the test system is S. aureus strain resistant to oxacillin. The data set is described as above. To be noted: 1.3 μg/ml oxacillin, 0.5 h, glucose-d2 containing medium. The protocol: as §5
Data set [11] has as its system vancomycin resistant (VRE) enterococci E. faecalis. Description: SRS metabolic imaging of glucose-d7 uptake (C-D signal) for AST. To be noted: for intensity of C-D component after MCR versus control: 20 μg/ml. As to the method:
as §3, with “sample. […]” for “sample.”
as §4, with “The output of MCR contains the concentration map and spectrum of each component. Referring now to FIG. 3A-D the spectra of glucose-d7, which represented the C-D component, and gel, which represented the background, were used as the input components.” left out, “data. […]” for “data.”

For data set [12] the test system is unchanged. As to the kind of experiment: MIC by conventional culture based method. To be noted: Enterococcus.
Setting [13] is: Enterococcus faecalis, conventional culture based method, E. faecalis 31970 (VSE), read-out: MIC.

For `[2H]O[2H]` [D2O], the toxicity to growth result in data set [1] and in data set [2] was “did not show significant toxicity” each time. Further, the “growth of P. aeruginosa” value in data set [3] is reported as “initially slowed down”.
In the case of `CO/N=C(\C(=O)N[C@@H]1C(=O)N2C(C(=O)O)=C(COC(C)=O)CS[C@H]12)c1csc(N)n1` [cefotaxime], in data set [4] (20 μg/ml, 70% D2O LB medium), the “bacterial morphology on cultivation with antibiotic” value is recorded as “tends to form long rods” and the “C-D signal / metabolic activity of D2O in SRS imaging” value is recorded as “active metabolic activity of D2O”. Besides, the “average C-D signal intensity relative to about 65% of control threshold” value in data set [4] (20 μg/ml) was “always above the threshold”. Besides, the “susceptibility of P. aeruginosa pre-determined by microdilution” value in data set [5] is given as “resistant”.
Take `CCCCCCCCCC(=O)N[C@@H](Cc1c[nH]c2ccccc12)C(=O)N[C@H](CC(N)=O)C(=O)N[C@@H](CC(=O)O)C(=O)N[C@@H]1C(=O)NCC(=O)N[C@@H](CCCN)C(=O)N[C@@H](CC(=O)O)C(=O)N[C@H](C)C(=O)N[C@@H](CC(=O)O)C(=O)NCC(=O)N[C@H](CO)C(=O)N[C@@H]([C@H](C)CC(=O)O)C(=O)N[C@@H](CC(=O)c2ccccc2N)C(=O)O[C@@H]1C` [daptomycin]: the MIC in [6] (setting [13]) was 32 µg/mL (≈ 19.7 µM). Also, the “susceptibility of E. faecalis 31970 based on metabolic imaging method” value (“susceptibility … on metabolic imaging method” for short) in data set [7] (1 h) was “resistant”.
For `CC[C@H]1OC(=O)[C@H](C)[C@@H](O[C@H]2C[C@@](C)(OC)[C@@H](O)[C@H](C)O2)[C@H](C)[C@@H](O[C@@H]2O[C@H](C)C[C@H](N(C)C)[C@H]2O)[C@](C)(O)C[C@@H](C)C(=O)[C@H](C)[C@@H](O)[C@]1(C)O` [erythromycin] the same measures were over 256 µg/mL and “resistant”.
On to `CC(=O)NC[C@H]1CN(c2ccc(N3CCOCC3)c(F)c2)C(=O)O1` [linezolid], for which the MIC in data set [6] (setting [13]) is 2 µg/mL (≈ 5.93 µM). For the same compound, in data set [7] (1 h), the “susceptibility … on metabolic imaging method” value is listed as “susceptible” and the “C-D signal in SRS imaging versus control” value is “significant reduction”.
Take `Cc1onc(-c2ccccc2)c1C(=O)N[C@@H]1C(=O)N2[C@@H]1SC(C)(C)[C@@H]2C(=O)O` [oxacillin]: the MIC in [8] was 0.0625 µg/mL. In addition, the “C-D peak versus untreated control” value in [9] is “reduction in C-D peak”; in data set [10] it was “no significant change”.
In the case of `CN[C@H](CC(C)C)C(=O)N[C@H]1C(=O)N[C@@H](CC(N)=O)C(=O)N[C@H]2C(=O)N[C@H]3C(=O)N[C@H](C(=O)N[C@H](C(=O)O)c4cc(O)cc(O)c4-c4cc3ccc4O)[C@H](O)c3ccc(c(Cl)c3)Oc3cc2cc(c3O[C@@H]2O[C@H](CO)[C@@H](O)[C@H](O)[C@H]2O[C@H]2C[C@](C)(N)[C@H](O)[C@H](C)O2)Oc2ccc(cc2Cl)[C@H]1O` [vancomycin], the MIC was 1 µg/mL (≈ 0.69 µM) in data set [6] (Enterococcus faecalis); 2 µg/mL in data set [7] (Enterococcus faecalis, 1 h, read-out: MIC determined by metabolic imaging method); over 100 µg/mL in data set [12]. Moreover, the “normalized SRS spectra, signal intensity in C-D region with and without treatment” value in data set [11] (20 μg/mL vancomycin, 30 minutes) is given as “remain the same”. Moreover, the “intensity of C-D component after MCR versus control” value was “did not significantly reduce” in data set [11] (0.5 to 3 h); “higher intensity of C-D component than the control group” in data set [11] (3 h (p-value 5×10^−4)); “significantly reduced” in data set [7] (VSE, 20 μg/ml, 0.5, 1 and 3 h (p 2.2×10^−13, 2.0×10^−11, 3.9×10^−15)). Moreover, the “susceptibility … on metabolic imaging method” value in data set [7] (1 h) is reported as “susceptible”. Besides, the “intensity of C-D signal for individual VSE relative to control group” value in data set [7] (20 μg/mL vancomycin, 30 minutes in glucose-d7 medium, fraction of control) is given as “about ⅓”. For the same compound, the “C-D signal in SRS imaging versus control” value in data set [7] (1 h) was “significant reduction”. The “intensity of C-D component versus control” value is “did not reduce” in data set [7] (VSE, 1 μg/mL vancomycin) and “significantly reduced” in [7] (VSE, 2 μg/mL or higher vancomycin). For the same compound, the “normalized SRS spectra, signal intensity in C-D region versus control” value in [7] (VSE, 20 μg/mL vancomycin, 30 minutes) is “reduced the signal intensity”.
Take gentamycin: the MIC in data set [6] (conventional culture based method, E. faecalis 31970 (VSE)) is over 256 µg/mL. Besides, the “susceptibility … on metabolic imaging method” value in data set [7] (1 h) is reported as “resistant”. For the same compound, the “C-D signal / metabolic activity of D2O in SRS imaging” value in data set [4] (20 μg/ml, 70% D2O LB medium) is “significantly reduced”. In addition, the “average C-D signal intensity relative to about 65% of control threshold” value in data set [4] (20 μg/ml) is recorded as “always below the threshold”. The “gentamicin concentration at which D2O metabolic activity was inhibited” value in [4] (about 1 hour, 70% D2O LB medium) was at least 8 µg/mL. Also, in data set [4] (about 1 hour, 70% D2O LB medium, 65% intensity threshold), the “MIC with SRS-based D2O metabolic imaging method” value was “about 8 μg/ml”. For the same compound, in data set [5], the “susceptibility of P. aeruginosa pre-determined by microdilution” value is given as “susceptible”.
